Results on 15 compounds are retold here after US10730874B2 (Shire Human Genetic Therapies, Inc., priority 2018, dated 2020).

Each structure is given as a SMILES string. Bounds are passed on as bounds.

In general, EC50 refers to the concentration at which the effect is half-maximal.

In one assay the target is human activated kallikrein enzyme (plasma kallikrein) (Homo sapiens (Human), UniProt P03952). Put plainly: Inhibition of human activated plasma kallikrein, fluorogenic peptide substrate assay, 500 pM enzyme format. It counts as biochemical. The conditions noted are these: 500 pM activated kallikrein enzyme, 300 uM Pro-Phe-Arg-7-amido-4-methylcoumarin substrate, 30 min preincubation, 10 min at RT; read-out: Primary Dose Response Assay: Average EC50. The method, boiled down: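 Buffer 20 mM Tris pH 7.5, EDTA, NaCl, PEG-400, Triton X-100; 300 uM Pro-Phe-Arg-AMC; enzyme–inhibitor preincubation 30 min RT. Format one: 500 pM kallikrein, 10 min RT reaction; format two: 5 pM kallikrein, 18 h RT reaction. Fluorescence read at 460 nm (380 nm excitation).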
Sequence of human activated kallikrein enzyme (plasma kallikrein) (P03952 391-638): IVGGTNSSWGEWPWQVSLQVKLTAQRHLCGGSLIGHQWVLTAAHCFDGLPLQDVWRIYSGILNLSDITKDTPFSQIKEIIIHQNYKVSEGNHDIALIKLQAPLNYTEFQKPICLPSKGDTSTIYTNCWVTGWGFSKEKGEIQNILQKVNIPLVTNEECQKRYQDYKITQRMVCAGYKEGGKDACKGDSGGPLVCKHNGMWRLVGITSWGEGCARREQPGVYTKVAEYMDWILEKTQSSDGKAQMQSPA
Sequence of human activated kallikrein enzyme (plasma kallikrein) (P03952 20-390 partner): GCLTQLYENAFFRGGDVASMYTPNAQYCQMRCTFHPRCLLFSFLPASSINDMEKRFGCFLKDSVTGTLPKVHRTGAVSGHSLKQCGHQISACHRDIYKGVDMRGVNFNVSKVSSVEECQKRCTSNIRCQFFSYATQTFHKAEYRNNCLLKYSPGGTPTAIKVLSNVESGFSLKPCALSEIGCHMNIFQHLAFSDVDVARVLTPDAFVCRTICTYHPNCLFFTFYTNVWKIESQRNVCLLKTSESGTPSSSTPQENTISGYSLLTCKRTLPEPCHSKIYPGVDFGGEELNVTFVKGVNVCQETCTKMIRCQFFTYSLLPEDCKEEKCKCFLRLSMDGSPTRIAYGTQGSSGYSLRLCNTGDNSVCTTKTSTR
`O=C(NCc1ncn2ccc(Cl)c(F)c12)c1cn(Cc2cn3ccccc3n2)cn1` [Example I-297, N-((7-chloro-8-fluoroimidazo[1,5-a]pyridin-1-yl)methyl)-1-(imidazo[1,2-a]pyridin-2-ylmethyl)-1H-imidazole-4-carboxamide]: the EC50 lay in the range of 10 to 100 nM.
The same measure, in the same setting: the figure for `NCc1cc(C2CC2)cn2cc(Cn3cc(C(=O)NCc4ncn5ccc(Cl)c(F)c45)nn3)nc12` [Example I-298, 1-((8-(aminomethyl)-6-cyclopropylimidazo[1,2-a]pyridin-2-yl)methyl)-N-((7-chloro-8-fluoroimidazo[1,5-a]pyridin-1-yl)methyl)-1H-1,2,3-triazole-4-carboxamide] is less than 1 nM; for `CN(C)CCOCc1cc(C2CC2)cn2cc(Cn3cc(C(=O)NCc4ncn5ccc(Cl)c(F)c45)nn3)nc12` [Example I-299, N-((7-chloro-8-fluoroimidazo[1,5-a]pyridin-1-yl)methyl)-1-((6-cyclopropyl-8-((2-(dimethylamino)ethoxy)methyl)imidazo[1,2-a]pyridin-2-yl)methyl)-1H-1,2,3-triazole-4-carboxamide] it is less than 1 nM; for `O=C(NCc1ncn2ccc(Cl)c(F)c12)c1cn(Cc2cn3cc(C4CC4)cc(CNCC(O)C(F)(F)F)c3n2)nn1` (stereo not drawn) [Example I-300, N-((7-chloro-8-fluoroimidazo[1,5-a]pyridin-1-yl)methyl)-1-((6-cyclopropyl-8-(((3,3,3-trifluoro-2-hydroxypropyl)amino)methyl)imidazo[1,2-a]pyridin-2-yl)methyl)-1H-1,2,3-triazole-4-carboxamide] it is less than 1 nM.
Same read-out and setting: the figure for `O=C(NCc1ncn2ccc(Cl)c(F)c12)c1cn(Cc2cn3cc(C4CC4)cc(COCCO)c3n2)nn1` [Example I-301, N-((7-chloro-8-fluoroimidazo[1,5-a]pyridin-1-yl)methyl)-1-((6-cyclopropyl-8-((2-hydroxyethoxy)methyl)imidazo[1,2-a]pyridin-2-yl)methyl)-1H-1,2,3-triazole-4-carboxamide] is less than 1 nM; for `NCCOCc1cc(C2CC2)cn2cc(Cn3cc(C(=O)NCc4ncn5ccc(Cl)c(F)c45)nn3)nc12` [Example I-302, 1-((8-((2-aminoethoxy)methyl)-6-cyclopropylimidazo[1,2-a]pyridin-2-yl)methyl)-N-((7-chloro-8-fluoroimidazo[1,5-a]pyridin-1-yl)methyl)-1H-1,2,3-triazole-4-carboxamide] it is less than 1 nM; for `O=C(NCc1ncn2ccc(Br)cc12)c1cn(Cc2cn3cc(C4CC4)ccc3n2)nn1` [Example I-303, N-((7-bromoimidazo[1,5-a]pyridin-1-yl)methyl)-1-((6-cyclopropylimidazo[1,2-a]pyridin-2-yl)methyl)-1H-1,2,3-triazole-4-carboxamide] it is less than 1 nM.

The same assay, now with this note: comparative compounds (Table II); assay format with 500 pM (500 μM in the source) activated kallikrein; read-out: Primary Dose Response Assay: Average EC50.
As for `O=C(NCc1ncn2ccc(Cl)cc12)c1ccnc(Cc2ccc3ncc(Cl)cc3c2)c1` [drawing 399, reference compound], the EC50 is 10 to 100 nM.
Still for that read-out and setting: next, `O=C(NCc1ncn2ccc(C3CC3)cc12)c1cnn(Cc2cn3cc(C4CC4)ccc3n2)c1` [drawing 403, reference compound]: 100 to 2000 nM; `COCc1nn(Cc2ccc(Cn3ccccc3=O)cc2)cc1C(=O)NCc1c(F)ccc(OC)c1F` [reference compound]: 10 to 100 nM; `COCc1nn(Cc2ccc(N3CCCC3)nc2)cc1C(=O)NCc1c(-n2cnnn2)ccc(OC)c1F` [reference compound]: 1 to 10 nM.
The same measure, in the same setting: next, `COCc1nn(Cc2ccc(Cn3ccccc3=O)cc2)cc1C(=O)NCc1c(C#N)ccc(OC)c1F` [reference compound]: 1 to 10 nM; `O=C(NCc1nsc2ccc(Cl)cc12)c1cnn(Cc2cn3cc(C4CC4)ccc3n2)c1` [reference compound]: 10 to 100 nM.
Same read-out and setting: next, `O=C(NCc1nnc2ccc(Cl)cn12)c1cnn(Cc2cn3cc(C4CC4)ccc3n2)c1` [reference compound]: 100 to 2000 nM; `Cc1ccc2nc(Cn3cc(C(=O)NCc4cnc5ccc(Cl)cn45)cn3)cn2c1` [reference compound]: 100 to 2000 nM.
